Measured values published in patent publication US20150011466A1, “APJ Receptor Compounds” (priority 2012, published 2015).
Where two headings read alike, the source gives them in different places. Where a SMILES comes first, the peptide text is derived from it. [ ]: non-standard residue; d: D form. The star is where a group is joined. Palmitoyl = CCCCCCCCCCCCCCCC(=O)*; Aib = CC(C)(N)C(=O)O

Key:
APJ receptor = molecular target: T1, APJ receptor (Homo sapiens, UniProt P35414); test: HTRF cAMP assay, inhibition of NKH477 stimulated cAMP in Human TRex cells expressing APJ upon doxycycline induction (APJ-hTREX); assay type: cell-based; conditions: for percent intrinsic activity at 0.3 µM: read-out: % IA (@ 300 nM); for Ranking: class combining EC50 and % histamine
T1 construct: expressed in transfected cells; host or cells: Human TRex cells (doxycycline-inducible)
T1 sequence (P35414 1-380): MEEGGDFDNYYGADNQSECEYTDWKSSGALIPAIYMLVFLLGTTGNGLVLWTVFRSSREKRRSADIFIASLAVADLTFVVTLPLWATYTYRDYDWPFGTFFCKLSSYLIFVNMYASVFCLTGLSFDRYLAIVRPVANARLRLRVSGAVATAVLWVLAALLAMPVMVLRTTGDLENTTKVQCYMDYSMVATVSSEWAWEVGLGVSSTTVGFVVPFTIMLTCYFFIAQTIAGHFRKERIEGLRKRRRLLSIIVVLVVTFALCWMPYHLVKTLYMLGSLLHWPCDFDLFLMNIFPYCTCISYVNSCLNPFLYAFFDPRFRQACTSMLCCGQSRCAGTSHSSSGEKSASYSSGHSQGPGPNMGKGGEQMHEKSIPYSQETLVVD
Description: HTRF (homogeneous time resolved fluorescence) is a technology developed by Cisbio Bioassays based on TR-FRET (time-resolved fluorescence resonance energy transfer). Cisbio Bioassays has developed a wide selection of HTRF-based assays compatible with whole cells, thereby enabling functional assays to run under more physiological conditions. The IP-One assays are competitive immunoassays using cryptate-labeled anti-IP1 monoclonal antibody and d2-labeled IP1. IP1 is a relatively stable downstream metabolite of IP3, and accumulates in cells following Gq receptor activation.
cAMP kits based on a competitive immunoassay using cryptate-labeled anti-cAMP antibody and d2-labeled cAMP were used to assay the effects of APJ compounds of the present invention. […] Cells are treated with […] doxycycline and seeded in all white 96 well plates @ 40 k/well overnight.

| EC50 (APJ receptor; inhibition of NKH477 stimulated cAMP, APJ-hTREX cells, read-out: APJ-hTREX EC50) [nM] | SMILES | Histimine (% vs. 48/40) (Histimine (% vs. 48/40)) [%] | percent intrinsic activity at 0.3 µM (APJ receptor) [%] | EC50 (APJ receptor) [nM] | Ranking (APJ receptor) |
| --- | --- | --- | --- | --- | --- |
|  | CCCCCCCCCCCCCCCC(=O)N[C@H](C(=O)N[C@H](C(=O)N[C@@H](Cc1ccccc1)C(=O)N[C@@H](CCCNC(=N)N)C(=O)N[C@@H](CO)C(=O)N[C@@H](CO)C(=O)N[C@@H](CCC(=O)O)C(=O)N[C@H](CCCCN)C(=O)N[C@@H](CCCNC(=N)N)C(=O)N[C@@H](CCCNC(=N)N)C(=O)N[C@@H](CO)C(=O)N[C@@H](C)C(=O)N[C@@H](CC(=O)O)C(=O)N[C@H](C(=O)N[C@@H](Cc1ccccc1)C(=O)NC(C)(C)C(N)=O)[C@@H](C)CC)C(C)C)[C@@H](C)O [Compound 67, TVFRSSEkRRSADIF(Aib)] (Palmitoyl-TVFRSSE[dK]RRSADIF[Aib]-NH2) | 50 | 46 |  |  |
|  | CCCCCCCCCCCCCCCC(=O)N[C@H](C(=O)N[C@H](C(=O)N[C@@H](Cc1ccccc1)C(=O)N[C@@H](CCCNC(=N)N)C(=O)N[C@@H](CO)C(=O)N[C@@H](CO)C(=O)N[C@@H](CCC(=O)O)C(=O)N[C@H](CCCCN)C(=O)N[C@@H](Cc1ccccc1)C(=O)N[C@@H](CCCNC(=N)N)C(=O)N[C@@H](CO)C(=O)N[C@@H](C)C(=O)N[C@@H](CC(=O)O)C(=O)N[C@H](C(=O)N[C@@H](Cc1ccccc1)C(=O)N[C@H](C(N)=O)[C@@H](C)CC)[C@@H](C)CC)C(C)C)[C@@H](C)O [Compound 3] (Palmitoyl-TVFRSSE[dK]FRSADIFI-NH2; C-terminus assumed) | 29 | 71 | 243 | **** (EC50 101-500 nM and % histamine<35%) |
|  | CCCCCCCCCCCCCCCC(=O)N[C@H](C(=O)N[C@H](C(=O)N[C@@H](Cc1ccccc1)C(=O)N[C@@H](CCCNC(=N)N)C(=O)N[C@@H](CO)C(=O)N[C@@H](CO)C(=O)N[C@@H](CCC(=O)O)C(=O)N[C@H](CCCCN)C(=O)N[C@@H](CCCNC(=N)N)C(=O)N[C@@H](CCCNC(=N)N)C(=O)N[C@@H](CO)C(=O)N[C@@H](C)C(=O)N[C@@H](CC(=O)O)C(=O)N1CCC[C@H]1C(=O)N[C@@H](Cc1ccccc1)C(=O)N[C@H](C(N)=O)[C@@H](C)CC)C(C)C)[C@@H](C)O [Compound 54] (Palmitoyl-TVFRSSE[dK]RRSADPFI-NH2) | 60 | 46 |  |  |
|  | CCCCCCCCCCCCCCCC(=O)N[C@H](C(=O)N[C@H](C(=O)N[C@@H](Cc1ccccc1)C(=O)N[C@@H](CCCNC(=N)N)C(=O)N[C@@H](CO)C(=O)N[C@@H](CO)C(=O)N[C@@H](CCC(=O)O)C(=O)N[C@H](CCCCN)C(=O)N[C@@H](CCCNC(=N)N)C(=O)N[C@@H](CCCNC(=N)N)C(=O)N[C@@H](CO)C(=O)N[C@@H](C)C(=O)N[C@@H](CC(=O)O)C(=O)N[C@@H](Cc1c[nH]cn1)C(=O)N[C@@H](Cc1ccccc1)C(=O)N[C@H](C(N)=O)[C@@H](C)CC)C(C)C)[C@@H](C)O [Compound 17] (Palmitoyl-TVFRSSE[dK]RRSADHFI-NH2) | 113 | 83 |  |  |
|  | CCCCCCCCCCCCCCCC(=O)N[C@H](C(=O)N[C@H](C(=O)N[C@@H](Cc1ccccc1)C(=O)N[C@@H](CCCNC(=N)N)C(=O)N[C@@H](CO)C(=O)N[C@@H](CO)C(=O)N[C@@H](CCC(=O)O)C(=O)NC(C)(C)C(=O)N[C@@H](CCCNC(=N)N)C(=O)N[C@@H](CCCNC(=N)N)C(=O)N[C@@H](CO)C(=O)N[C@@H](C)C(=O)N[C@@H](CC(=O)O)C(=O)N[C@H](C(=O)N[C@@H](Cc1ccccc1)C(=O)N[C@H](C(N)=O)[C@@H](C)CC)[C@@H](C)CC)C(C)C)[C@@H](C)O [Compound 60] (Palmitoyl-TVFRSSE[Aib]RRSADIFI-NH2; C-terminus assumed) | 26 | 65 | 167 | **** (EC50 101-500 nM and % histamine<35%) |
|  | CCCCCCCCCCCCCCCC(=O)N[C@H](C(=O)N[C@H](C(=O)N[C@@H](Cc1ccccc1)C(=O)N[C@@H](CCCNC(=N)N)C(=O)NCC(=O)N[C@@H](CO)C(=O)N[C@@H](CCC(=O)O)C(=O)N[C@H](CCCCN)C(=O)N[C@@H](CCCNC(=N)N)C(=O)N[C@@H](CCCNC(=N)N)C(=O)N[C@@H](CO)C(=O)N[C@@H](C)C(=O)N[C@@H](CC(=O)O)C(=O)N[C@H](C(=O)N[C@@H](Cc1ccccc1)C(=O)N[C@H](C(N)=O)[C@@H](C)CC)[C@@H](C)CC)C(C)C)[C@@H](C)O [Compound 72] (Palmitoyl-TVFRGSE[dK]RRSADIFI-NH2; C-terminus assumed) | 44 | 75 | 134 | ** (EC50 101-500 nM and % histamine>35%) |
|  | CCCCCCCCCCCCCCCC(=O)N[C@H](C(=O)N[C@H](C(=O)N[C@@H](Cc1ccccc1)C(=O)N[C@@H](CCCNC(=N)N)C(=O)N[C@@H](CO)C(=O)N[C@@H](CO)C(=O)N1CCC[C@H]1C(=O)N[C@H](CCCCN)C(=O)N[C@@H](CCCNC(=N)N)C(=O)N[C@@H](CCCNC(=N)N)C(=O)N[C@@H](CO)C(=O)N[C@@H](C)C(=O)N[C@@H](CC(=O)O)C(=O)N[C@H](C(=O)N[C@@H](Cc1ccccc1)C(=O)N[C@H](C(N)=O)[C@@H](C)CC)[C@@H](C)CC)C(C)C)[C@@H](C)O [Compound 47] (Palmitoyl-TVFRSSP[dK]RRSADIFI-NH2; C-terminus assumed) | 60 | 83 | 13.3 | *** (EC50<100 nM and % histamine>35%) |
|  | CCCCCCCCCCCCCCCC(=O)N[C@H](C(=O)N[C@H](C(=O)N[C@@H](Cc1ccccc1)C(=O)N[C@@H](CCCNC(=N)N)C(=O)N[C@@H](CO)C(=O)N[C@@H](CO)C(=O)N[C@@H](CCC(=O)O)C(=O)N[C@H](CCCCN)C(=O)N[C@@H](CCCNC(=N)N)C(=O)N[C@@H](CCCNC(=N)N)C(=O)N[C@@H](CO)C(=O)N[C@@H](C)C(=O)NCC(=O)N[C@H](C(=O)N[C@@H](Cc1ccccc1)C(=O)N[C@H](C(N)=O)[C@@H](C)CC)[C@@H](C)CC)C(C)C)[C@@H](C)O [Compound 78] (Palmitoyl-TVFRSSE[dK]RRSAGIFI-NH2) | 62 | 60 |  |  |
| 15.4 | CCCCCCCCCCCCCCCC(=O)N[C@H](C(=O)N[C@H](C(=O)N[C@@H](Cc1ccccc1)C(=O)N[C@@H](CCCNC(=N)N)C(=O)N[C@@H](CO)C(=O)N[C@@H](CO)C(=O)N[C@@H](CCC(=O)O)C(=O)N[C@H](CCCCN)C(=O)N[C@@H](CCCNC(=N)N)C(=O)N[C@@H](CCCNC(=N)N)C(=O)N[C@@H](CO)C(=O)N[C@@H](C)C(=O)N[C@@H](CC(=O)O)C(=O)N[C@H](C(=O)N[C@@H](Cc1ccccc1)C(=O)N1CCC[C@H]1C(N)=O)[C@@H](C)CC)C(C)C)[C@@H](C)O [Compound 56] (Palmitoyl-TVFRSSE[dK]RRSADIFP-NH2; C-terminus assumed) | 50 | 92 |  | *** (EC50<100 nM and % histamine>35%) |
|  | CCCCCCCCCCCCCCCC(=O)N[C@H](C(=O)N[C@H](C(=O)N[C@@H](Cc1ccccc1)C(=O)N[C@@H](CCCNC(=N)N)C(=O)N[C@@H](CO)C(=O)N[C@@H](CO)C(=O)N[C@@H](CCC(=O)O)C(=O)N[C@H](CCCCN)C(=O)N[C@@H](CCC(N)=O)C(=O)N[C@@H](CCCNC(=N)N)C(=O)N[C@@H](CO)C(=O)N[C@@H](C)C(=O)N[C@@H](CC(=O)O)C(=O)N[C@H](C(=O)N[C@@H](Cc1ccccc1)C(=O)N[C@H](C(N)=O)[C@@H](C)CC)[C@@H](C)CC)C(C)C)[C@@H](C)O [Compound 26] (Palmitoyl-TVFRSSE[dK]QRSADIFI-NH2; C-terminus assumed) | −1 | 6 | 112 | **** (EC50 101-500 nM and % histamine<35%) |
|  | CCCCCCCCCCCCCCCC(=O)N[C@H](C(=O)N[C@H](C(=O)N[C@@H](Cc1ccccc1)C(=O)N[C@@H](CCCNC(=N)N)C(=O)N[C@@H](CO)C(=O)N[C@@H](CO)C(=O)N[C@@H](CCC(=O)O)C(=O)N[C@H](CCCCN)C(=O)N[C@@H](CCCNC(=N)N)C(=O)N[C@@H](CCCNC(=N)N)C(=O)N[C@@H](CO)C(=O)N[C@@H](CCC(N)=O)C(=O)N[C@@H](CC(=O)O)C(=O)N[C@H](C(=O)N[C@@H](Cc1ccccc1)C(=O)N[C@H](C(N)=O)[C@@H](C)CC)[C@@H](C)CC)C(C)C)[C@@H](C)O [Compound 28] (Palmitoyl-TVFRSSE[dK]RRSQDIFI-NH2) | 16 | 8 |  |  |
|  | CCCCCCCCCCCCCCCC(=O)N[C@H](C(=O)N[C@H](C(=O)N[C@@H](Cc1ccccc1)C(=O)N[C@@H](CCCNC(=N)N)C(=O)N[C@@H](CO)C(=O)N[C@@H](CO)C(=O)N[C@@H](CCC(=O)O)C(=O)N[C@H](CCCCN)C(=O)NC(C)(C)C(=O)N[C@@H](CCCNC(=N)N)C(=O)N[C@@H](CO)C(=O)N[C@@H](C)C(=O)N[C@@H](CC(=O)O)C(=O)N[C@H](C(=O)N[C@@H](Cc1ccccc1)C(=O)N[C@H](C(N)=O)[C@@H](C)CC)[C@@H](C)CC)C(C)C)[C@@H](C)O [Compound 61, TVFRSSEk(Aib)RSADIFI] (Palmitoyl-TVFRSSE[dK][Aib]RSADIFI-NH2; C-terminus assumed) | 25 | 62 | 5210 |  |
